Experimental data published in patent publication US11166942B2 (PRAXIS BIOTECH LLC, priority 2018, dated 2021).
Read-outs that look alike come from different tables or passages of the source.

Test system: ATF4
Test: ATF4 expression inhibition assay (ATF4 5'UTR luciferase reporter, Tg-stressed HEK293T cells)
Format: cell-based, human
Details: for inhibition at 0.1 µM: read-out: % ATF4 inhibition at 100 nM; for IC50: read-out: ATF4 inhbition IC50; for inhibition at 1 µM: read-out: % ATF4 inhibition at 1 μM
Procedure: The ATF4 reporter was prepared by fusing the human full length 5′UTR of ATF4 (NCBI Accession No. BC022088.2) upstream of the firefly luciferase coding sequence lacking the initiator methionine. The fused sequence was cloned into pLenti-EF1a-C-Myc-DDK-IRES-Puro cloning vector (Origen #PS100085) using standard methods. Virus production was carried out by using Lenti-X™ Packaging Single Shots Protocol (Clonetech #631276). Viral particles were used to transduce HEK293T cells (ATCC #CRL-3216, ATCC Manassas, Va.), which were subsequently selected with puromycin to generate stable cell line. Cells were maintained at 37° C. and 5% CO2 in DMEM-F12 (Hyclone #SH30023.02) supplemented with 10% heat-inactivated fetal bovine serum (Gibco #16000-044), 2 mM L-glutamine (Gibco #25030-081), 100 U/ml penicillin, and 100 μg/ml streptomycin (Gibco #15140-122).
HEK293T cells carrying the ATF4 luciferase reporter were plated on 96-well plates (Nunc) at 10,000 cells per well. Cells were treated two days after seeding with 100 nM thapsigargin (Tg) (Sigma-Aldrich #T9033) in the presence of 100 nM or 1 μM. For the assessment of the half-maximal inhibitory concentration (IC50) for selected compounds, dose-response assays were performed. Compounds were serially diluted using DMSO ranging from 0.1 nM to 1 μM. Cells without treatment or cells treated with Tg alone were used as controls. Assay plates containing cells were incubated for 3 hours at 37° C.
Luciferase reactions were performed using Luciferase Assay System (Promega #E1501) as specified by the manufacturer. Luminescence was read with an integration time of 1 s and a gain of 110 using a Cytation-5 multi-mode microplate reader (BioTek). Relative luminescence units were normalized to Tg treatment (0% inhibition) and untreated cells (100% inhibition) and the percentage of ATF4 inhibition was calculated.
Percentages of ATF4 inhibition after induction with Tg in the presence of 100 nM or 1 μM of certain test compounds are shown in Table 2. Also shown in Table 2 is the calculated IC50 for certain test compounds. […] Accordingly, inhibition of ATF4 expression as a result of the test compound indicates suppression of the ISR pathway.

[1] = Homo sapiens, HEK-293T, 3 h, 100 nM test compound, 100 nM thapsigargin, 3 hours, HEK293T ATF4 luciferase reporter
[2] = Homo sapiens, HEK-293T, 3 h, 100 nM thapsigargin, 3 hours, HEK293T ATF4 luciferase reporter
[3] = Homo sapiens, HEK-293T, 3 h, 1 μM test compound, 100 nM thapsigargin, 3 hours, HEK293T ATF4 luciferase reporter

SMILES | inhibition at 0.1 µM [1] | IC50 [2] | inhibition at 1 µM [3] | further results
O=C(COc1ccc(Cl)c(F)c1)NC1CCN(NCC(O)COc2ccc(Cl)c(F)c2)CC1 (centres unmarked) [Compound 7, 2-(4-chloro-3-fluorophenoxy)-N-(1-((3-(4-chloro-3-fluorophenoxy)-2-hydroxypropyl)amino)piperidin-4-yl)acetamide] | 16.1% | > 1000 nM | 13.9% | –
O=C(COc1ccc(Cl)c(F)c1)NC1CCN(NC(=O)c2nc3cc(Cl)ccc3s2)CC1 [Compound 9, 5-chloro-N-(4-(2-(4-chloro-3-fluorophenoxy)acetamido)piperidin-1-yl)benzo[d]thiazole-2-carboxamide] | 77.1% | < 100 nM | 86.8% | –
O=C(COc1ccc(Cl)c(F)c1)NN1CCC(NC(=O)c2nc3cc(Cl)ccc3s2)CC1 [Compound 10, 5-chloro-N-(1-(2-(4-chloro-3-fluorophenoxy)acetamido)piperidin-4-yl)benzo[d]thiazole-2-carboxamide] | 68.2% | < 100 nM | 87.2% | –
O=C(COc1ccc(Cl)c(F)c1)NC1CCN(NC(=O)C2Cc3cc(Cl)ccc3O2)CC1 (centres unmarked) [Compound 11, 5-chloro-N-(4-(2-(4-chloro-3-fluorophenoxy)acetamido)piperidin-1-yl)-2,3-dihydrobenzofuran-2-carboxamide] | 67.8% | < 100 nM | 90.5% | –
O=C(COc1ccc(Cl)c(F)c1)NN1CCC(NC(=O)C2Cc3cc(Cl)ccc3O2)CC1 (centres unmarked) [Compound 12, 5-chloro-N-(1-(2-(4-chloro-3-fluorophenoxy)acetamido)piperidin-4-yl)-2,3-dihydrobenzofuran-2-carboxamide] | 69.4% | < 100 nM | 88.5% | –
O=C(NN1CCN(CC(O)COc2ccc(Cl)c(F)c2)CC1)C1Cc2cc(Cl)ccc2O1 (centres unmarked) [Compound 13, 5-chloro-N-(4-(3-(4-chloro-3-fluorophenoxy)-2-hydroxypropyl)piperazin-1-yl)-2,3-dihydrobenzofuran-2-carboxamide] | – | – | – | % ATF4 inhibition at 100 nM (100 nM test compound, 100 nM thapsigargin, 3 hours, HEK293T ATF4 luciferase reporter): 60.7%; IC50 (100 nM thapsigargin, 3 hours, HEK293T ATF4 luciferase reporter): < 100 nM; % ATF4 inhibition at 1 μM (1 μM test compound, 100 nM thapsigargin, 3 hours, HEK293T ATF4 luciferase reporter): 86.7%
O=C(NC1CCN(NCC(O)COc2ccc(Cl)c(F)c2)CC1)c1ccc2cc(Cl)ccc2n1 (centres unmarked) [Compound 25, 6-chloro-N-(1-((3-(4-chloro-3-fluorophenoxy)-2-hydroxypropyl)amino)piperidin-4-yl)quinoline-2-carboxamide] | 8.1% | > 1000 nM | 8.5% | –
O=C(NC1CCN(NCC(O)COc2ccc(Cl)c(F)c2)CC1)c1cc2cc(Cl)ccc2o1 (centres unmarked) [Compound 26, 5-chloro-N-(1-((3-(4-chloro-3-fluorophenoxy)-2-hydroxypropyl)amino)piperidin-4-yl)benzofuran-2-carboxamide] | 37.5% | – | 49.4% | –
O=C(COc1ccc(C(F)(F)F)cc1)NC1CCN(NC(=O)COc2ccc(C(F)(F)F)cc2)CC1 [Compound 35, N,N′-(piperidine-1,4-diyl)bis(2-(4-(trifluoromethyl)phenoxy)acetamide)] | 92.1% | < 100 nM | 91.6% | –
O=C(COc1ccc(Cl)c([N+](=O)[O-])c1)NC1CCN(NC(=O)COc2ccc(Cl)c(F)c2)CC1 [Compound 39, 2-(4-chloro-3-fluorophenoxy)-N-(4-(2-(4-chloro-3-nitrophenoxy)acetamido)piperidin-1-yl)acetamide] | – | – | – | inhibition at 0.1 µM (Homo sapiens, HEK-293T, 3 h): 91%; inhibition at 1 µM (Homo sapiens, HEK-293T, 3 h): 91.5%; IC50 (Homo sapiens, HEK-293T, 3 h): < 100 nM
O=C(NC1CCN(NCC(O)COc2ccc(Cl)c(F)c2)CC1)C1Cc2cc(Cl)ccc2O1 (centres unmarked) [Compound 70, 5-chloro-N-(1-((3-(4-chloro-3-fluorophenoxy)-2-hydroxypropyl)amino)piperidin-4-yl)-2,3-dihydrobenzofuran-2-carboxamide] | 0.4% | > 1000 nM | 21.4% | –
